Test system: MK-801-treated rodents
Assay: Novel object recognition (NOR) task in MK-801 cognition impairment model
Type: in vivo, rodents (mice or rats)
Conditions: 5 mg/Kg s.c.; MK-801 0.2 mg/kg i.p.; FIG. 1
Protocol: The new compounds were evaluated for their efficacy as cognition enhancers in a pharmacological model for cognitive impairment. The effects of the new compounds were evaluated in untreated and MK-801-treated rodents (mice or rats). MK-801 is a non-competitive antagonist of the N-Methyl-D-aspartate (NMDA) receptor which impairs animal performance in various learning and memory paradigms (Castellano C et al., Curr. Drug Targets 2001; 2:273-83; Riedel G et al., Behav. Brain Res. 2003; 140:1-47). MK-801 also produces various effects on rodent behavior, including deficits in sensory processing, hypermotility, stereotypy and ataxia. […]
The novel object recognition (NOR) task is based on the natural preference of rodents to explore novel objects (Ennaceur A et al., Behav. Brain Res. 1988; 31:47-59). […] The animals were then allowed to explore freely for 10 min, and the time spent exploring each object was recorded. […] An index of discrimination was calculated as follows: time spent exploring the new object minus time spent exploring the old object, divided by the total time exploring both objects, and multiplied by 100. […]

With COc1cc(C(=O)N2CC(F)(F)C[C@H]2C(=O)N2CCC[C@H]2C#N)cc(OC)c1OCc1ccccc1 [Example 4, (S)-1-((2S)-1-(4-(benzyloxy)-3,5-dimethoxybenzoyl)-4,4-difluoropyrrolidine-2-carbonyl)pyrrolidine-2-carbonitrile] the “Reversal of MK-801-induced memory impairment in the NOR test” value was “able to reverse MK-801-induced memory impairment”.
